Assay results from patent US10550144B2, “6-aryl-9-glycosylpurines and use thereof” (UNIVERZITA PALACKEHO V OLOMOUCI, priority 2014, dated 2020).

What was measured:
[1] = system: Dais cotinifolia shoot-tip explants; experiment: Shoot multiplication and shoot-tip necrosis in shoot cultures of Dais cotinifolia; format: in vivo; conditions: after 8 weeks of culture
Experimental: Explants were washed thoroughly with 0.1% (v/v) of Tween® 20 for 2 min, and decontaminated with 70% ethanol for 15 sec followed by 0.2% aqueous HgCl2 for 10 min. The explants were rinsed five times with sterile distilled water. […] Each value was presented as the mean±standard error, with three replicates; each replicate consisting of 15 explants per treatment.

[2] = system: Amelanchier alnifolia nodal explants; experiment: Micropropagation growth response with BAP, Amelanchier alnifolia; conditions: after 35 days in vitro, N = 9
[3] = system: Gymnosporia buxifolia shoot-tip explants; experiment: Shoot-tip necrosis in in vitro cultures of Gymnosporia buxifolia; conditions: after 4 weeks of culture
[4] = system: Harpagophytum procumbens nodal explants; experiment: Micropropagation growth response with BAP, Harpagophytum procumbens; conditions: after 35 days in vitro, N = 12
[5] = 10 μM BAP alone (Treatment No. 2)

OC[C@H]1O[C@@H](n2cnc3c(NCc4ccccc4F)ncnc32)[C@@H](O)[C@@H]1O [Example 2FBAPA, 6-(2-fluorobenzylamino)-9-β-D-arabinofuranosylpurine]
Morphogenesis in vitro ([1]; 5 μM in MS medium): Pale green shoots | STN [%] (shoot-tip necrosis) ([1]; 5 μM in MS medium): 33.3 ± 0.74e % | Shoot length [cm] ([1]; 5 μM in MS medium): 1.12 ± 0.12bc cm | Shoots [explant^−1] […] ([1]; 5 μM in MS medium): 1.0 ± 0.00c explant^−1 | Morphogenesis in vitro ([1]; 10 μM in MS medium): Pale green shoots | STN [%] (shoot-tip necrosis) ([1]; 10 μM in MS medium): 31.5 ± 1.18ef % | Shoot length [cm] ([1]; 10 μM in MS medium): 1.54 ± 0.16bc cm | Shoots [explant^−1] […] ([1]; 10 μM in MS medium): 1.6 ± 0.24bc explant^−1 | Morphogenesis in vitro ([1]; 20 μM in MS medium): Green shoots | STN [%] (shoot-tip necrosis) ([1]; 20 μM in MS medium): 27.7 ± 0.74g % | Shoot length [cm] ([1]; 20 μM in MS medium): 1.90 ± 0.14ab cm | Shoots [explant^−1] […] ([1]; 20 μM in MS medium): 2.0 ± 0.32b explant^−1 | Morphogenesis in vitro ([1]; 30 μM in MS medium): Green shoots | STN [%] (shoot-tip necrosis) ([1]; 30 μM in MS medium): 20.0 ± 0.44h % | Shoot length [cm] ([1]; 30 μM in MS medium): 2.40 ± 0.27a cm | Shoots [explant^−1] […] ([1]; 30 μM in MS medium): 2.3 ± 0.37b explant^−1 | Fresh weight (g) mean SE ([2]; 5 μM compound with 10 μM BAP): 0.178 ± 0.0428 g | Shoot length (mm) mean SE ([2]; 5 μM compound with 10 μM BAP): 14.33 ± 2.754 mm | Shoot no. mean SE ([2]; 5 μM compound with 10 μM BAP): 7.2 ± 1.41 | Fresh weight (g) mean SE ([2]; 10 μM compound with 10 μM BAP): 0.529 ± 0.1739 g | Shoot length (mm) mean SE ([2]; 10 μM compound with 10 μM BAP): 14.67 ± 1.291 mm | Shoot no. mean SE ([2]; 10 μM compound with 10 μM BAP): 13.2 ± 3.44 | Fresh weight (g) mean SE ([2]; 20 μM compound with 10 μM BAP): 0.492 ± 0.0593 g | Shoot length (mm) mean SE ([2]; 20 μM compound with 10 μM BAP): 19.33 ± 2.571 mm | Shoot no. mean SE ([2]; 20 μM compound with 10 μM BAP): 15.4 ± 1.62 | Fresh weight (g) mean SE ([2]; 30 μM compound with 10 μM BAP): 0.584 ± 0.1564 g | Shoot length (mm) mean SE ([2]; 30 μM compound with 10 μM BAP): 16.44 ± 2.369 mm | Shoot no. mean SE ([2]; 30 μM compound with 10 μM BAP): 14.9 ± 2.40 | STN [%] (shoot-tip necrosis) ([3]; 5 μM in MS medium): 66.7 ± 0.32b % | Shoot length [cm] ([3]; 5 μM in MS medium): 1.02 ± 0.15bc cm | Shoots [explant^−1] […] ([3]; 5 μM in MS medium): 1.0 ± 0.0a explant^−1 | STN [%] (shoot-tip necrosis) ([3]; 10 μM in MS medium): 58.0 ± 0.40c % | Shoot length [cm] ([3]; 10 μM in MS medium): 1.82 ± 0.13b cm | Shoots [explant^−1] […] ([3]; 10 μM in MS medium): 1.0 ± 0.0a explant^−1 | STN [%] (shoot-tip necrosis) ([3]; 20 μM in MS medium): 42.0 ± 1.20f % | Shoot length [cm] ([3]; 20 μM in MS medium): 3.20 ± 0.17a cm | Shoots [explant^−1] […] ([3]; 20 μM in MS medium): 1.0 ± 0.0a explant^−1 | STN [%] (shoot-tip necrosis) ([3]; 30 μM in MS medium): 26.6 ± 0.37h % | Shoot length [cm] ([3]; 30 μM in MS medium): 2.98 ± 0.12a cm | Shoots [explant^−1] […] ([3]; 30 μM in MS medium): 1.0 ± 0.0a explant^−1 | Fresh weight (g) mean SE ([4]; 5 μM compound with 10 μM BAP): 0.8764 ± 0.1818 g | Shoot length (mm) mean SE ([4]; 5 μM compound with 10 μM BAP): 19.8 ± 3.2721 mm | Shoot no. mean SE ([4]; 5 μM compound with 10 μM BAP): 1.7 ± 0.335 | Fresh weight (g) mean SE ([4]; 10 μM compound with 10 μM BAP): 0.6712 ± 0.1149 g | Shoot length (mm) mean SE ([4]; 10 μM compound with 10 μM BAP): 23.9 ± 3.195 mm | Shoot no. mean SE ([4]; 10 μM compound with 10 μM BAP): 2.5 ± 0.477 | Fresh weight (g) mean SE ([4]; 20 μM compound with 10 μM BAP): 0.8935 ± 0.231 g | Shoot length (mm) mean SE ([4]; 20 μM compound with 10 μM BAP): 34.9 ± 5.608 mm | Shoot no. mean SE ([4]; 20 μM compound with 10 μM BAP): 2.8 ± 0.291 | Fresh weight (g) mean SE ([4]; 30 μM compound with 10 μM BAP): 0.6877 ± 0.1009 g | Shoot length (mm) mean SE ([4]; 30 μM compound with 10 μM BAP): 23.7 ± 2.937 mm | Shoot no. mean SE ([4]; 30 μM compound with 10 μM BAP): 2.4 ± 0.267

c1ccc(CNc2ncnc3nc[nH]c23)cc1 [BA, 6-benzylaminopurine, reference compound]
Morphogenesis in vitro ([1]; 10 μM in MS medium): Dark green shoots + SBI | STN [%] (shoot-tip necrosis) ([1]; 10 μM in MS medium): 61.5 ± 1.02a % | Shoot length [cm] ([1]; 10 μM in MS medium): 1.52 ± 0.26bc cm | Shoots [explant^−1] […] ([1]; 10 μM in MS medium): 3.4 ± 0.37a explant^−1 | Fresh weight (g) mean SE [2, 5]: 0.319 ± 0.1255 g | Shoot length (mm) mean SE [2, 5]: 17.22 ± 1.770 mm | Shoot no. mean SE [2, 5]: 7.7 ± 2.65 | STN [%] (shoot-tip necrosis) ([3]; 10 μM in MS medium): 73.3 ± 0.20a % | Shoot length [cm] ([3]; 10 μM in MS medium): 1.92 ± 0.09b cm | Shoots [explant^−1] […] ([3]; 10 μM in MS medium): 1.0 ± 0.0a explant^−1 | Fresh weight (g) mean SE [4, 5]: 0.3614 ± 0.05563 g | Shoot length (mm) mean SE [4, 5]: 19.4 ± 1.529 mm | Shoot no. mean SE [4, 5]: 1.5 ± 0.167
